In patent US8623862B2, “Derivatives of N-[(1H-pyrazol-1-yl)aryl]-1H-indole or 1H-indazole-3-carboxamide, preparation thereof and applications thereof in therapeutics” (Sanofi, priority 2011, dated 2014):
Where two headings read alike, the source gives them in different places.

Test system: platelet aggregation
Test: Inhibition of platelet aggregation in vitro (rat blood);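 also: aggregation induced by ADP added as 4 µL of a 250 µM solution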
Format: cell-based
Conditions: read-out: Inhibition of platelet aggregation in vitro (rat blood);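 also: aggregation induced by ADP added as 4 µL of a 250 µM solution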
Description: The measurements of platelet aggregation are performed at 37° C. in glass tubes (Chrono-Log—Kordia aggregometer).
Inhibition of Platelet Aggregation In Vitro (Rat Blood)
The blood is taken from male rats of the Sprague-Dawley strain, weighing 250-300 g.
The platelet-rich plasma (PRP) is obtained by centrifugation of the blood at 300 g for 5 minutes, and the measurements of platelet aggregation are performed as described above.
The results are calculated using the area under the curve of absorbance measured for 6 minutes, and expressed as percentage inhibition.

[1] = rat platelet-rich plasma, ADP-induced aggregation, area under the curve of absorbance for 6 minutes

SMILES	IC50 [1] [nM]	IC50 (rat blood, in vitro) [nM]	also measured
CCCC(=O)c1cnn(-c2ccc(NC(=O)c3cn(CC(=O)N4CC(O)C4)c4ccc(Cl)cc34)nn2)c1C [Compound 66]	220		
CCCC(=O)c1cnn(-c2ccc(NC(=O)c3cn(CC(=O)N4CCN(C5CCC5)CC4)c4ccc(Cl)cc34)cc2)c1C [Compound 201]		650	
CCCC(=O)c1cnn(-c2ccc(NC(=O)c3cn(CC(=O)N4CCN(C(C)C)CC4)c4ccc(Cl)cc34)nn2)c1C [Compound 54]	110		
CCCC(=O)c1cnn(-c2ccc(NC(=O)c3cn(CC(=O)N4CC5CCNC5C4)c4ccc(C)cc34)cc2)c1C (stereo not drawn) [Compound 246]	850		
CCCC(=O)c1cnn(-c2ccc(NC(=O)c3cn(CC(=O)N4CCN(Cc5ccncc5)CC4)c4ccc(Cl)cc34)nn2)c1C [Compound 102]	30		
CCCC(=O)c1cnn(-c2ccc(NC(=O)c3cn(CC(=O)N4CCN(C)C(CCOC)C4)c4ccc(Cl)cc34)cc2)c1C (stereo not drawn) [Compound 196]		230	
CCCC(=O)c1cnn(-c2ccc(NC(=O)c3cn(CC(=O)N4CCN(C)C(CO)C4)c4ccc(C)cc34)cc2)c1C (stereo not drawn) [Compound 268]	240		
CCCC(=O)c1cnn(-c2ccc(NC(=O)c3cn(CC(=O)N4CC(C)NC(C)C4)c4ccc(Cl)cc34)cc2)c1C (stereo not drawn) [Compound 159]		410	
CCCC(=O)c1cnn(-c2ccc(NC(=O)c3cn(CC(=O)N4CCC(N5CCOCC5)CC4)c4ccc(Cl)cc34)nn2)c1C [Compound 65]	120		
CCCC(=O)c1cnn(-c2ccc(NC(=O)c3cn(CC(=O)N4CC(N5CCCCC5)C4)c4ccc(Cl)cc34)nn2)c1C [Compound 86]	390		
CCCC(=O)c1cnn(-c2ccc(NC(=O)c3cn(CC(=O)N4CCNCC4C)c4ccc(Cl)cc34)cc2)c1C (stereo not drawn) [Compound 258]	300		
CCCCN1CCN(C(=O)Cn2cc(C(=O)Nc3ccc(-n4ncc(C(=O)CCC)c4C)nn3)c3cc(Cl)ccc32)CC1 [Compound 55]	160		
CCCC(=O)c1cnn(-c2ccc(NC(=O)c3cn(CC(=O)N4Cc5ccncc5C4)c4ccc(Cl)cc34)nn2)c1C [Compound 76]	60		
CCCC(=O)c1cnn(-c2ccc(NC(=O)c3cn(CC(=O)N4CCN(C)C(C)C4)c4ccc(Cl)cc34)nn2)c1C (stereo not drawn) [Compound 77]	90		
CCCC(=O)c1cnn(-c2ccc(NC(=O)c3cn(CC(=O)N4CCN(Cc5cccs5)CC4)c4ccc(C)cc34)cc2)c1C [Compound 164]		1010	
CCCC(=O)c1cnn(-c2ccc(NC(=O)c3cn(CC(=O)N4CCC(N(C)C)C4)c4ccc(C)cc34)cc2)c1C (stereo not drawn) [Compound 120]		270	
CCCC(=O)c1cnn(-c2ccc(NC(=O)c3cn(CC(=O)N4CCn5cnnc5C4)c4ccc(Cl)cc34)nn2)c1C [Compound 70]	110		
CCCC(=O)c1cnn(-c2ccc(NC(=O)c3cn(CC(=O)O)c4cc(Cl)c(Cl)cc34)cc2)c1C [Compound 17]	7300		
CCCC(=O)c1cnn(-c2ccc(NC(=O)c3cn(CC(=O)N4CCC(OCCO)C4)c4ccc(Cl)cc34)cc2)c1C (stereo not drawn) [Compound 208]		370	
CCCC(=O)c1cnn(-c2ccc(NC(=O)c3cn(CC(=O)N4CCC(F)(F)C4)c4ccc(Cl)cc34)cc2)c1C [Compound 189]		410	

SMILES	IC50 [1] [nM]	IC50 (rat blood, in vitro) [nM]	also measured
CCCC(=O)c1cnn(-c2ccc(NC(=O)c3cn(CC(=O)N4CCN(CC(=O)N5CCCC5)CC4)c4ccc(Cl)cc34)nn2)c1C [Compound 46]	40		
CCCC(=O)c1cnn(-c2ccc(NC(=O)c3cn(CC(=O)NCCn4cccc4)c4ccc(Cl)cc34)nn2)c1C [Compound 58]	450		
CCCC(=O)c1cnn(-c2ccc(NC(=O)c3cn(CC(=O)N4CCN5CCCC5C4C)c4ccc(Cl)cc34)nn2)c1C (stereo not drawn) [Compound 84]	90		
CCCC(=O)c1cnn(-c2ccc(NC(=O)c3cn(CC(=O)N4CCN5CCCC5C4)c4ccc(C)cc34)cc2)c1C (stereo not drawn) [Compound 123]		350	
CCCC(=O)c1cnn(-c2ccc(NC(=O)c3cn(CC(=O)N4CC(C)NC(C)C4)c4ccc(C)cc34)cc2)c1C (stereo not drawn) [Compound 247]	260		
CCCC(=O)c1cnn(-c2ccc(NC(=O)c3cn(CC(=O)N4CCN(CC(=O)N5CCCC5)CC4)c4ccc(Cl)cc34)cc2)c1C [Compound 198]		410	
CCCC(=O)c1cnn(-c2ccc(NC(=O)c3cn(CC(=O)O)c4ccc(C#N)cc34)cc2)c1C [Compound 23]	4100		
CCCC(=O)c1cnn(-c2ccc(NC(=O)c3cn(CC(=O)N4CCN(CCO)CC4)c4ccc(Cl)cc34)nn2)c1C [Compound 95]	50		
CCCC(=O)c1cnn(-c2ccc(NC(=O)c3cn(CC(=O)N4CCNC(C)C4)c4ccc(Cl)cc34)cc2)c1C (stereo not drawn) [Compound 257]	460		
CCCC(=O)c1cnn(-c2ccc(NC(=O)c3cn(CC(=O)N4CCN(C(=O)N(C)C)CC4)c4ccc(Cl)cc34)nn2)c1C [Compound 69]	100		
CCCC(=O)c1cnn(-c2ccc(NC(=O)c3cn(CC(=O)N4CCN(CC(N)=O)CC4)c4ccc(Cl)cc34)cc2)c1C [Compound 199]		270	
CCCC(=O)c1cnn(-c2ccc(NC(=O)c3cn(CC(=O)N4CCN(C)CC4)c4ccc(C#N)cc34)cc2)c1C [Compound 160]		1380	
CCCC(=O)c1cnn(-c2ccc(NC(=O)c3cn(CC(=O)N4Cc5c[nH]nc5C4)c4ccc(Cl)cc34)cc2)c1C [Compound 175]		290	
CCCC(=O)c1cnn(-c2ccc(NC(=O)c3cn(CC(=O)N4CCN(CCOCC)CC4)c4ccc(Cl)cc34)cc2)c1C [Compound 161]		370	
CCCC(=O)c1cnn(-c2ccc(NC(=O)c3cn(CC(=O)N4CCN(CCOC)CC4)c4cc(F)c(Cl)cc34)cc2)c1C [Compound 158]		340	
CCCC(=O)c1cnn(-c2ccc(NC(=O)c3cn(CC(=O)NC)c4cc(C)c(C)cc34)cc2)c1C [Compound 109]		2420	
CCCC(=O)c1cnn(-c2ccc(NC(=O)c3cn(CC(=O)O)c4cc(C)c(Cl)cc34)cc2)c1C [Compound 4, Sodium (3-{[4-(4-butyryl-5-methyl-1H-pyrazol-1-yl)phenyl]carbamoyl}-5-chloro-6-methyl-1H-indol-1-yl)acetate]			IC50 (0.1 h, rat platelet-rich plasma, ADP-induced aggregation, area under the curve of absorbance for 6 minutes): 3300 nM
CCCC(=O)c1cnn(-c2ccc(NC(=O)c3cn(CC(=O)N(C)CCN(C)C)c4ccc(Cl)cc34)nn2)c1C [Compound 97]	90		
CCCC(=O)c1cnn(-c2ccc(NC(=O)c3cn(CC(=O)N(C)C)c4ccc(N(C)C)cc34)cc2)c1C [Compound 178]		500	
CCCC(=O)c1cnn(-c2ccc(NC(=O)c3cn(CC(=O)N4CC5CCCCN5CC4C)c4ccc(Cl)cc34)nn2)c1C (stereo not drawn) [Compound 89]	170		

SMILES	IC50 [1] [nM]	IC50 (rat blood, in vitro) [nM]	also measured
CCCC(=O)c1cnn(-c2ccc(NC(=O)c3cn(CC(=O)N4CCN(CC(=O)OC)CC4)c4ccc(Cl)cc34)nn2)c1C [Compound 87]	40		
CCCC(=O)c1cnn(-c2ccc(NC(=O)c3cn(CC(=O)N4CC(N5CCOCC5)C4)c4ccc(Cl)cc34)nn2)c1C [Compound 104]	100		
CCCC(=O)c1cnn(-c2ccc(NC(=O)c3cn(CC(=O)N4CC[C@@H](C(=O)NC5CC5)C4)c4ccc(Cl)cc34)cc2)c1C [Compound 188]		550	
CCCC(=O)c1cnn(-c2ccc(NC(=O)c3cn(CC(=O)N4CCn5ccnc5C4)c4ccc(Cl)cc34)cc2)c1C [Compound 172]		330	
CCCC(=O)c1cnn(-c2ccc(NC(=O)c3cn(CC(=O)O)c4cc(Br)c(C)cc34)cc2)c1C [Compound 19]	42000		
CCCC(=O)c1cnn(-c2ccc(NC(=O)c3cn(CC(=O)N4CCN(CCOCCO)CC4)c4ccc(Cl)cc34)cc2)c1C [Compound 144]		190	
CCCC(=O)c1cnn(-c2ccc(NC(=O)c3cn(CC(=O)N4CCCN(C)CC4)c4ccc(Cl)cc34)nn2)c1C [Compound 99]	110		
CCCC(=O)c1cnn(-c2ccc(NC(=O)c3cn(CC(=O)N4CCN(C5CCS(=O)(=O)C5)CC4)c4ccc(Cl)cc34)nn2)c1C (stereo not drawn) [Compound 73]	50		
CCCC(=O)c1cnn(-c2ccc(NC(=O)c3cn(CC(=O)N4CC(O)CC4C(=O)NC4CCC4)c4ccc(Cl)cc34)cc2)c1C (stereo not drawn) [Compound 171]		570	
CCCC(=O)c1cnn(-c2ccc(NC(=O)c3cn(CC(=O)N(C)C)c4cc(C)c(C)cc34)cc2)c1C [Compound 106]		2210	
CCCC(=O)c1cnn(-c2ccc(NC(=O)c3cn(CC(=O)NCCn4ccnc4)c4ccc(C)cc34)cc2)c1C [Compound 134]		950	
CCCC(=O)c1cnn(-c2ccc(NC(=O)c3cn(CC(=O)NCCO)c4ccc(Cl)cc34)nn2)c1C [Compound 33]	80		
CCOC(=O)c1cnn(-c2ccc(NC(=O)c3cn(CC(=O)N4CCN(C)CC4)c4ccc(Cl)cc34)cc2)c1C [Compound 218]		560	
CCCC(=O)c1cnn(-c2ccc(NC(=O)c3cn(CC(=O)N4CCN(C)C(=O)C4)c4ccc(Cl)cc34)nn2)c1C [Compound 44]	160		
CCCC(=O)c1cnn(-c2ccc(NC(=O)c3cn(CC(=O)N(C)CCCO)c4ccc(Cl)cc34)nn2)c1C [Compound 72]	60		
CCCC(=O)c1cnn(-c2ccc(NC(=O)c3cn(CC(=O)N4CCN(CC(O)C(F)(F)F)CC4)c4ccc(Cl)cc34)cc2)c1C (stereo not drawn) [Compound 209]		420	
CCCCN1CCN(C(=O)Cn2cc(C(=O)Nc3ccc(-n4ncc(C(=O)CCC)c4C)cc3)c3cc(Cl)ccc32)CC1 [Compound 151]		250	
CCCC(=O)c1cnn(-c2ccc(NC(=O)c3cn(CC(=O)N4CCN(Cc5ccc(Cl)cc5)CC4)c4ccc(Cl)cc34)cc2)c1C [Compound 167]		470	
CCCC(=O)c1cnn(-c2ccc(NC(=O)c3cn(CC(=O)N4CC5CCC(C4)N5C)c4ccc(Cl)cc34)cc2)c1C [Compound 192]		270	
CCCC(=O)c1cnn(-c2ccc(NC(=O)c3cn(CC(=O)N4CCC(N5CCOCC5)CC4)c4ccc(Cl)cc34)cc2)c1C [Compound 149]		410	
